We go through 23 molecules from patent publication EP4562003B1, “NOVEL 7-SUBSTITUTED INDOLE SULFONAMIDE DERIVATIVES” (F. Hoffmann-La Roche AG, priority 2022, dated 2024).

human GPR17 short isoform, sequence (Q13304 29-367): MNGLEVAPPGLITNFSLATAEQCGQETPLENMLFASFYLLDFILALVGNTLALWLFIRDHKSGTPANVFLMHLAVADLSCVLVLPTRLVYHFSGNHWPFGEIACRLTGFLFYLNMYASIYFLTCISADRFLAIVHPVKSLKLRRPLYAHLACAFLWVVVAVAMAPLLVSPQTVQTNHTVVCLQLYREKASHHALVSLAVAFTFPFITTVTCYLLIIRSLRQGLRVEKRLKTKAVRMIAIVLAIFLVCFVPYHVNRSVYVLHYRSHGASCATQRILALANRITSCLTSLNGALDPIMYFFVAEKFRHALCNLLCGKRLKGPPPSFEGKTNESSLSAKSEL

The assay concerns the target human GPR17 short isoform (Homo sapiens, UniProt Q13304). Put plainly: GPR17 cAMP assay (TR-FRET cAMP quantification, antagonist mode). Type of assay: cell-based. Particulars: CHO-K1 cells stably expressing human GPR17 short isoform; EC80 of agonist MDL29,951; forskolin 15µM; IBMX 0.5mM; 30 minutes at room temperature; read-out: hGPR17 cAMP IC50. On the procedure: GPR17 cAMP Assay Protocol:
CHO-K1 cells stably expressing vector containing untagged human GPR17 short isoform (Roche) were cultured at 37°C / 5% CO2 in DMEM (Dulbecco's Modified Eagle Medium):F-12 (1:1) supplemented with 10% foetal bovine serum and 400 µg/ml Geneticin.
Changes in intracellular cyclic adenosine monophosphate (cAMP) levels were quantified using the Nano-TRF Detection Assay kit (Roche Diagnostics, Cat. No. 05214386001). This assay allows for direct cAMP quantification in a homogeneous solution. cAMP is detected based on time-resolved fluorescence energy transfer (TR-FRET) and competitive binding of ruthenylated cAMP and endogenous cAMP to an anti-cAMP monoclonal antibody labeled with AlexaFluor-700. The Ruthenium complex serves as the FRET donor and transfers energy to AlexaFluor-700. The FRET signal is inversely proportional to the cAMP concentration.
CHO-GPR17S cells were detached with Accutase and resuspended in assay buffer consisting of Hank's Balanced Salt Solution (HBSS), 10mM HEPES (4-(2-hydroxyethyl) piperazine-1-ethanesulfonic acid solution) and 0.1% bovine serum albumin (pH 7.4). The cells were seeded in black 384-well plates (Corning) at a density of 10'000 cells / 20µl assay buffer until the addition of compounds.
Test antagonist compounds were serially diluted in dimethyl sulfoxide (DMSO) and spotted in 384-well plates. The compounds were then diluted in HBSS buffer supplemented with an EC80 concentration of MDL29,951 (3-(2-Carboxy-4,6-dichloroindol-3-yl)propionic acid) (GPR17 agonist) plus 3-Isobutyl-1-methylxanthine (IBMX) (0.5mM final concentration) and added to the cells at room temperature. Forskolin (15µM final concentration) was added 5 minutes after the test compounds and the cells were incubated at room temperature for 30 minutes. The assay was stopped by adding cAMP detection mix (containing detergents for cell lysis) for 90 minutes at room temperature.
Cellular cAMP was measured using a Paradigm reader (Molecular Devices). The raw data was used to calculate the FRET signal based on the assay's P-factor as per cAMP kit instructions. The data was normalized to the maximal activity of a reference antagonist and dose response curves were fitted to the percent activity of the test compounds using a sigmoidal dose response model (Genedata Screener).
Results in the hGPR17 cAMP assay are provided for compounds of formula I in Table 1 Table 1: […]
One may read the IC50 as the point on the concentration scale where inhibition reaches its midpoint. For `COc1nc(NS(=O)(=O)c2c[nH]c3c(-c4cnn(C)c4)c(Cl)ccc23)nc(OC)c1OCCF` [Example 112, 6-chloro-N-[5-(2-fluoroethoxy)-4,6-dimethoxy-pyrimidin-2-yl]-7-(1-methylpyrazol-4-yl)-1H-indole-3-sulfonamide], the IC50 came out at 0.052 µM.

For the molecule `COc1nc(NS(=O)(=O)c2c[nH]c3c(-c4ncccn4)c(F)ccc23)nc(OC)c1OCC(F)F` [Example 26, N-[5-(2,2-difluoroethoxy)-4,6-dimethoxy-pyrimidin-2-yl]-6-fluoro-7-(2-pyrimidyl)-1H-indole-3-sulfonamide], the IC50 was determined as 0.218 µM.

In the case of `COc1nc(NS(=O)(=O)c2c[nH]c3c(-c4ccnnc4)c(Cl)ccc23)nc(OC)c1OCC(F)F` [Example 95, 6-chloro-N-[5-(2,2-difluoroethoxy)-4,6-dimethoxy-pyrimidin-2-yl]-7-pyridazin-4-yl-1H-indole-3-sulfonamide], the IC50 is 0.046 µM.

On to `COc1nc(NS(=O)(=O)c2c[nH]c3c(-c4cnccn4)c(F)ccc23)nc(OC)c1OCC(F)F` [Example 33, N-[5-(2,2-difluoroethoxy)-4,6-dimethoxy-pyrimidin-2-yl]-6-fluoro-7-pyrazin-2-yl-1H-indole-3-sulfonamide], for which the IC50 was determined as 0.132 µM.

On to `COc1nc(NS(=O)(=O)c2c[nH]c3c(-c4ccn(C)n4)c(Cl)ccc23)nc(OC)c1OCC(F)F` [Example 61, 6-chloro-N-[5-(2,2-difluoroethoxy)-4,6-dimethoxy-pyrimidin-2-yl]-7-(1-methylpyrazol-3-yl)-1H-indole-3-sulfonamide], for which the IC50 came out at 0.023 µM.

As for `COc1nc(NS(=O)(=O)c2c[nH]c3c(-c4cnccn4)c(C)ccc23)nc(OC)c1OC(F)F` [Example 59, N-[5-(difluoromethoxy)-4,6-dimethoxy-pyrimidin-2-yl]-6-methyl-7-pyrazin-2-yl-1H-indole-3-sulfonamide], the IC50 amounted to 0.068 µM.

Regarding `COc1nc(NS(=O)(=O)c2c[nH]c3c(-c4ncccn4)c(Br)ccc23)nc(OC)c1OC(F)F` [Example 36, 6-bromo-N-[5-(difluoromethoxy)-4,6-dimethoxy-pyrimidin-2-yl]-7-(2-pyrimidyl)-1H-indole-3-sulfonamide], the IC50 worked out at 0.042 µM.

Take `COc1nc(NS(=O)(=O)c2c[nH]c3c(-c4cnc(C)cn4)c(Cl)ccc23)nc(OC)c1OCC(F)F` [Example 84, 6-chloro-N-[5-(2,2-difluoroethoxy)-4,6-dimethoxy-pyrimidin-2-yl]-7-(5-methylpyrazin-2-yl)-1H-indole-3-sulfonamide]: the IC50 was 0.052 µM.

Consider `COc1nc(NS(=O)(=O)c2c[nH]c3c(-c4ncccn4)c(Cl)ccc23)nc(OC)c1OCCF` [Example 22, 6-chloro-N-[5-(2-fluoroethoxy)-4,6-dimethoxy-pyrimidin-2-yl]-7-(2-pyrimidyl)-1H-indole-3-sulfonamide], for which the IC50 came to 0.08 µM.

Regarding `COc1nc(NS(=O)(=O)c2c[nH]c3c(-c4cncnc4)c(Cl)ccc23)nc(OC)c1OCC(F)F` [Example 89, 6-chloro-N-[5-(2,2-difluoroethoxy)-4,6-dimethoxy-pyrimidin-2-yl]-7-(5-pyrimidyl)-1H-indole-3-sulfonamide], the IC50 turned out to be 0.042 µM.

For the molecule `COc1nc(NS(=O)(=O)c2c[nH]c3c(-c4cnccn4)c(Cl)ccc23)nc(OC)c1OCCF` [Example 21, 6-chloro-N-[5-(2-fluoroethoxy)-4,6-dimethoxy-pyrimidin-2-yl]-7-pyrazin-2-yl-1H-indole-3-sulfonamide], the IC50 was 0.04 µM.

Consider `COc1nc(NS(=O)(=O)c2c[nH]c3c(-c4ncco4)c(Cl)ccc23)nc(OC)c1OCC(F)F` [Example 2, 6-chloro-N-[5-(2,2-difluoroethoxy)-4,6-dimethoxy-pyrimidin-2-yl]-7-oxazol-2-yl-1H-indole-3-sulfonamide], for which the IC50 was found to be 0.098 µM.

Consider `COc1nc(NS(=O)(=O)c2c[nH]c3c(-c4cnccn4)c(Br)ccc23)nc(OC)c1CC(F)F` [Example 39, 6-bromo-N-[5-(2,2-difluoroethyl)-4,6-dimethoxy-pyrimidin-2-yl]-7-pyrazin-2-yl-1H-indole-3-sulfonamide], for which the IC50 amounted to 0.017 µM.

As for `COc1nc(NS(=O)(=O)c2c[nH]c3c(-c4cnccn4)c(C)ccc23)nc(OC)c1OCC(F)F` [Example 58, N-[5-(2,2-difluoroethoxy)-4,6-dimethoxy-pyrimidin-2-yl]-6-methyl-7-pyrazin-2-yl-1H-indole-3-sulfonamide], the IC50 was 0.051 µM.

For `COc1nc(NS(=O)(=O)c2c[nH]c3c(-c4cn(C)cn4)c(Cl)ccc23)nc(OC)c1OCC(F)F` [Example 47, 6-chloro-N-[5-(2,2-difluoroethoxy)-4,6-dimethoxy-pyrimidin-2-yl]-7-(1-methylimidazol-4-yl)-1H-indole-3-sulfonamide], the IC50 was 0.017 µM.

In the case of `COc1nc(NS(=O)(=O)c2c[nH]c3c(-c4ccnc(C)n4)c(Cl)ccc23)nc(OC)c1OCC(F)F` [Example 62, 6-chloro-N-[5-(2,2-difluoroethoxy)-4,6-dimethoxy-pyrimidin-2-yl]-7-(2-methylpyrimidin-4-yl)-1H-indole-3-sulfonamide], the IC50 turned out to be 0.037 µM.

Take `COc1nc(NS(=O)(=O)c2c[nH]c3c(-c4ncn(C)n4)c(Cl)ccc23)nc(OC)c1OCC(F)F` [Example 104, 6-chloro-N-[5-(2,2-difluoroethoxy)-4,6-dimethoxy-pyrimidin-2-yl]-7-(1-methyl-1,2,4-triazol-3-yl)-1H-indole-3-sulfonamide]: the IC50 worked out at 0.113 µM.

Regarding `COc1nc(NS(=O)(=O)c2c[nH]c3c(-c4cccc(C)n4)c(Cl)ccc23)nc(OC)c1CC(F)F` [Example 93, 6-chloro-N-[5-(2,2-difluoroethyl)-4,6-dimethoxy-pyrimidin-2-yl]-7-(6-methyl-2-pyridyl)-1H-indole-3-sulfonamide], the IC50 amounted to 0.024 µM.

For `COc1nc(NS(=O)(=O)c2c[nH]c3c(-c4nccn4C)c(F)ccc23)nc(OC)c1OCC(F)F` [Example 9, N-[5-(2,2-difluoroethoxy)-4,6-dimethoxy-pyrimidin-2-yl]-6-fluoro-7-(1-methylimidazol-2-yl)-1H-indole-3-sulfonamide], the IC50 came to 0.069 µM.

With `COc1nc(NS(=O)(=O)c2c[nH]c3c(-c4ncccn4)c(Cl)ccc23)nc(OC)c1C1CC1C#N` (centres unmarked) [Example 24, 6-chloro-N-[5-(2-cyanocyclopropyl)-4,6-dimethoxy-pyrimidin-2-yl]-7-(2-pyrimidyl)-1H-indole-3-sulfonamide], the IC50 was 0.061 µM.

For the molecule `COc1nc(NS(=O)(=O)c2c[nH]c3c(-c4ncc5n4CCC5)cccc23)nc(OC)c1CC(F)F` [Example 121, N-[5-(2,2-difluoroethyl)-4,6-dimethoxy-pyrimidin-2-yl]-7-(6,7-dihydro-5H-pyrrol[1,2-c]imidazol-3-yl)-1H-indole-3-sulfonamide], the IC50 was 0.046 µM.

In the case of `COc1nc(NS(=O)(=O)c2c[nH]c3c(-c4cnccn4)c(Cl)ccc23)nc(OC)c1OCC(F)F` [Example 16, 6-chloro-N-[5-(2,2-difluoroethoxy)-4,6-dimethoxy-pyrimidin-2-yl]-7-pyrazin-2-yl-1H-indole-3-sulfonamide], the IC50 amounted to 0.025 µM.

For `COc1nc(NS(=O)(=O)c2c[nH]c3c(-c4ncccn4)c(C(F)F)ccc23)nc(OC)c1CC(F)F` [Example 51, N-[5-(2,2-difluoroethyl)-4,6-dimethoxy-pyrimidin-2-yl]-6-(difluoromethyl)-7-(2-pyrimidyl)-1H-indole-3-sulfonamide], the IC50 amounted to 0.074 µM.
